Assay results as given in patent publication US6448436B1, “Integrated process for the production of 2, 6-naphthalene dicarboxylic acid” (Mossi & Ghisolfi Overseas, S. A., priority 1999, dated 2002).

Assay: Solubility of the potassium salts equilibrated in aqueous potassium carbonate solutions
Type: physicochemical
Excerpt: The data was gathered by equilibrating the potassium salts of 2-KNA and 2,6-K2NDA in aqueous solutions of potassium carbonate. The capped jars were contained in water baths to control the temperature and were magnetically stirred to speed the dissolution of the solids. Data derived from the solubility studies are outlined in Table 6.

[1] = 10 wt % K2CO3 aqueous solution, 35° C.
[2] = 15 wt % K2CO3 aqueous solution, 35° C.
[3] = 20 wt % K2CO3 aqueous solution, 35° C.
[4] = 20 wt % K2CO3 aqueous solution, 80° C.
[5] = 25 wt % K2CO3 aqueous solution, 35° C.
[6] = 25 wt % K2CO3 aqueous solution, 80° C.
[7] = 30 wt % K2CO3 aqueous solution, 35° C.
[8] = 30 wt % K2CO3 aqueous solution, 80° C.

Solubility Ratio 2,6-K2NDA/2-KNA (10 wt % K2CO3, 35° C.) | Solubility [1] [wt %] | Solubility Ratio 2,6-K2NDA/2-KNA (15 wt % K2CO3, 35° C.) | Solubility [2] [wt %] | Solubility Ratio 2,6-K2NDA/2-KNA (20 wt % K2CO3, 35° C.) | Solubility Ratio 2,6-K2NDA/2-KNA (20 wt % K2CO3, 80° C.) | Solubility [3] [wt %] | Solubility [4] [wt %] | Solubility Ratio 2,6-K2NDA/2-KNA (25 wt % K2CO3, 35° C.) | Solubility Ratio 2,6-K2NDA/2-KNA (25 wt % K2CO3, 80° C.) | Solubility [5] [wt %] | Solubility [6] [wt %] | Solubility Ratio 2,6-K2NDA/2-KNA (30 wt % K2CO3, 35° C.) | Solubility Ratio 2,6-K2NDA/2-KNA (30 wt % K2CO3, 80° C.) | Solubility [7] [wt %] | Solubility [8] [wt %] | Temperature dependence of solubility (aqueous K2CO3 solutions, 35° C. vs 80° C.) | SMILES
0.41 | 13.8 | 0.52 | 6.8 | 1.13 | 0.13 | 2.4 | 5.5 | 1.41 | 0.08 | 0.6 | 1.6 | 1.33 | 0.08 | 0.2 | 0.6 | only a weak function of temperature | O=C([O-])c1ccc2cc(C(=O)[O-])ccc2c1.[K+].[K+] [2,6-K2NDA, dipotassium salt of 2,6-NDA]
 | 33.9 |  | 13.2 |  |  | 2.1 | 41.1 |  |  | 0.4 | 19.2 |  |  | 0.2 | 7.4 |  | O=C([O-])c1ccc2ccccc2c1.[K+] [2-KN]
